# Values quoted from earlier work as cited in patent US20240041034A1, “ANTIMICROBIAL COMPOSITION COMPRISING A DIOCTYLDIMETHYLAMMONIUM COMPOUND” (The Procter & Gamble Company, priority 2022, published 2024).
# Conditions: in water, in the absence of surfactant
structure (smiles),measurement,value
"CCCCCCCC[N+](C)(C)CCCCCCCC.[Cl-] [DODMAC, dioctyldimethylammonium chloride]",Critical Micelle Concentration (CMC),~5000 ppm
